From EP4786455A1, “NOVEL PHTHALAZINE DERIVATIVE COMPOUND AS SOS1 INHIBITOR, AND USE THEREOF” (Hanmi Pharmaceutical Co., Ltd., priority 2023, dated 2025)

Target: T1, SOS1 (Homo sapiens, UniProt Q07889)
T1 construct: comprising amino acid residues 564-1049 corresponding to the catalytic domain; purchased Reaction Biology Corp. SOS1-Strep #MSC-11-502; GST-KRAS G12C #MSC-11-538
T1 sequence (Q07889 564-1049): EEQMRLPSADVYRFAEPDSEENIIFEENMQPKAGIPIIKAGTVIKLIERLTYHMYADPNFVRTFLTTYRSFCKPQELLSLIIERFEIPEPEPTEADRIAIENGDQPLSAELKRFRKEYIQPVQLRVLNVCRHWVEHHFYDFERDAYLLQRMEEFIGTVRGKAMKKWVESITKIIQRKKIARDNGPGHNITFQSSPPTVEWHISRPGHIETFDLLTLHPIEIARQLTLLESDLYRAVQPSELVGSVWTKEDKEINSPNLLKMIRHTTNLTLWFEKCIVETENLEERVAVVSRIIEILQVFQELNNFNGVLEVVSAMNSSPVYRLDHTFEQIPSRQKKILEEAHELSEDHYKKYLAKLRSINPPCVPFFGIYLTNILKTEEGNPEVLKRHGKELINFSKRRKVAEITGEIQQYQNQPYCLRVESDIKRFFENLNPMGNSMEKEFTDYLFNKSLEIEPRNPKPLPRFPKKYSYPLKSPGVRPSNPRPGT
Experiment: Inhibitory activity on SOS1-mediated GTP exchange (HTRF / TR-FRET nucleotide exchange assay on KRAS G12C)
Type: biochemical
Settings: SOS1-mediated GTP exchange on GST-KRAS G12C (residues 2-169); SOS1-Strep catalytic domain (564-1049); GTP-DY-647P1; HTRF signal; 5-point concentration series up to 1,000 nM
Experimental: To evaluate whether the SOS1-mediated nucleotide exchange activity on KRAS G12C is inhibited by the compounds of the above Examples, a homogeneous time-resolved fluorescence (homogenous time-resolved fluorescence, HTRF) assay was performed using GST-KRAS G12C (#MSC-11-538) and SOS1-Strep (#MSC-11-502) obtained from Reaction Biology Corp. (USA, MA). The activity of SOS1 was determined by measuring the amount of GTP bound to the KRAS G12C protein based on the principle of time-resolved fluorescence resonance energy transfer (time-resolved fluorescence energy transfer, TR-FRET). Terbium (Terbium) conjugated to an anti-GST antibody bound to the GST tag of the GST-KRAS G12C protein served as a FRET donor, and GTP bound to the KRAS G12C protein was labeled with the fluorophore DY-647P1, serving as a FRET acceptor. Based on this principle, a higher HTRF or FRET signal is observed as more GTP is bound to KRAS G12C due to the SOS1-mediated exchange reaction in the assay.
In summary, a GST-labeled KRAS G12C protein (comprising amino acid residues 2-169), a […] SOS1 protein (comprising amino acid residues 564-1049 corresponding to the catalytic domain), an anti-GST antibody, labeled nucleotide GTP-DY-647P1, and the test compound were mixed in a buffer solution containing 20 mM HEPES (pH 7.4), 150 mM NaCl, 5 mM MgCl2, 1 mM dithiothreitol (DTT), 0.05% BSA, and 0.0025% NP40. The mixture was dispensed into a 384-well plate, incubated at room temperature, and the HTRF signal was measured using a PHERAstar microplate reader (BMG Labtech). The excitation wavelength was 337 nm, and emission was measured at 620/665 nm. A background signal value was determined from fluorescence measurements obtained in the absence of SOS1 protein and was subtracted from all measured HTRF values. A control value was determined from fluorescence measurements obtained in the absence of the synthesized compounds and was set as the 100% reference. Fluorescence signals were measured at compound concentrations of 0.1, 1, 10, 100, and 1,000 nM (5 points, 10-fold) or 1.6, 8, 40, 200, and 1,000 nM (5 points, 5-fold). The 50% inhibitory concentration (IC50) values of the compounds were calculated using GraphPad Prism.
IC50 values were denoted as +++ when 50 nM or less, ++ when greater than 50 nM and 100 nM or less, and + when greater than 100 nM.

IC50, ≤ 50 nM:
CNc1cc2c(N[C@H](C)c3cc(N)cc(C(F)(F)F)c3)nnc(C)c2cc1C(=O)N1CCOCC1 [Example 25, (R)-(1-((1-(3-amino-5-(trifluoromethyl)phenyl)ethyl)amino)-4-methyl-7-(methylamino)phthalazin-6-yl)(morpholino)methanone]
CNc1cc2c(N[C@H](C)c3cc(N)cc(C(F)F)c3F)nnc(C)c2cc1C(=O)N1CCOCC1 [Example 26, (R)-(1-((1-(5-amino-3-(difluoromethyl)-2-fluorophenyl)ethyl)amino)-4-methyl-7-(methylamino)phthalazin-6-yl)(morpholino)methanone]
CNc1cc2c(N[C@H](C)c3cccc(C(F)(F)CO)c3)nnc(C)c2cc1C(=O)N1CCOCC1 [Example 27, (R)-(1-((1-(3-(1,1-difluoro-2-hydroxyethyl)phenyl)ethyl)amino)-4-methyl-7-(methylamino)phthalazin-6-yl)(morpholino)methanone]
COc1cc2c(N[C@H](C)c3cccc(C#N)c3C)nnc(C)c2cc1CN1CCOCC1 [Example 28, (R)-3-(1-((7-methoxy-4-methyl-6-(morpholinomethyl)phthalazin-1-yl)amino)ethyl)-2-methylbenzonitrile]
CNc1cc2c(N[C@H](C)c3cccc(C#N)c3C)nnc(C)c2cc1CN1CCOCC1 [Example 29, (R)-2-methyl-3-(1-((4-methyl-7-(methylamino)-6-(morpholinomethyl)phthalazin-1-yl)amino)ethyl)benzonitrile]
Cc1c(C#N)cccc1[C@@H](C)Nc1nnc(C)c2cc(CN3CCOCC3)c(NC3CCCC3)cc12 [Example 30, (R)-3-(1-((7-(cyclopentylamino)-4-methyl-6-(morpholinomethyl)phthalazin-1-yl)amino)ethyl)-2-methylbenzonitrile]
Cc1c(C#N)cccc1[C@@H](C)Nc1nnc(C)c2cc(CN3CCN(C4CC4)CC3)c(NC3CCCC3)cc12 [Example 31, (R)-3-(1-((7-(cyclopentylamino)-6-((4-cyclopropylpiperazin-1-yl)methyl)-4-methylphthalazin-1-yl)amino)ethyl)-2-methylbenzonitrile]
COc1cc2c(N[C@H](C)c3cccc(C#N)c3C)nnc(C)c2cc1C(=O)N1CCOCC1 [Example 32, (R)-3-(1-((7-methoxy-4-methyl-6-(morpholine-4-carbonyl)phthalazin-1-yl)amino)ethyl)-2-methylbenzonitrile]
Cc1c(C#N)cccc1[C@@H](C)Nc1nnc(C)c2cc(C(=O)N3CCOCC3)c(NC3CCCC3)cc12 [Example 33]
